Values joined by “and” are separate entries in the source; they are usually repeats but may differ in a detail not shown here. Equal entries are not always repeated. Where two headings read alike, the source gives them in different places. Marks after values point to notes of the source that are not given here.
Key:
[1] = Stability of MTG in PBS receptor medium with antioxidants (DTT, ascorbic acid); format: physicochemical; conditions: 32 °C
Method: The drug content was analysed using HPLC (Sect. HPLC analysis) at 24, 48, 72 and 96 h.
(§1) Samples were analysed using Shimadzu liquid chromatographic system (Kyoto, Japan) with SPD-20A UV–vis detector set at 254 nm. A reverse phase ZORBAX Eclipse Plus C18 column (Agilent Technologies, 150 × 4.6 mm ID × 3.5 μm) coupled with a C18 guard column (Phenomenex SecurityGuard™, 4 × 3.0 mm ID × 5 μm) was employed as the stationary phase. A gradient elution method with acetonitrile and 0.1%v/v of formic acid as the mobile phase (30:70 to 70:30 (v/v) over 1 min and held until 4 min; then returned to 30:70 (v/v) from 4 to 6 min and held up until 10 min) at a flow rate of 1.2 mL/min was used. The injection volume was set at 100 μL and the total run time was 10 min with a retention time of ~ 4 min. The limits of detection and quantification were 0.47 and 1.43 μg/mL for a lower concentration drug range (0.5–10 μg/mL) and 4.29 and 13.01 μg/mL for a higher concentration drug range (10–175 μg/mL), respectively. The linearity for both calibration curves was excellent (R^2 > 0.999).

[2] = In vitro skin permeation of 5%w/v MTG in single solvents (Franz diffusion cells), with infinite dose model fitting; format: in vitro ADME, porcine; conditions: for Papp at 48 h, 5 %w/v: pig, read-out: Kp (permeability coefficient) (converted)
Method: The in vitro permeation study was performed in triplicate using Franz diffusion cell apparatus with a diffusion area of ~ 0.8 cm^2 and a receptor volume of ~ 3 mL. The porcine skin was thawed at room temperature and cut into an appropriate size before mounting on the Franz diffusion cells. The receptor compartment was filled with PBS containing 0.02%w/v of sodium azide and a selected antioxidant. The Franz diffusion cells were placed into a water bath to maintain the skin temperature at 32 ± 0.5 °C. […] After 48-h permeation studies, the mass balance studies were performed.
as §1, with “min.” for “min. The limits of detection and quantification were 0.47 and 1.43 μg/mL for a lower concentration drug range (0.5–10 μg/mL) and 4.29 and 13.01 μg/mL for a higher concentration drug range (10–175 μg/mL), respectively. The linearity for both calibration curves was excellent (R^2 > 0.999).”
To estimate the permeation parameters (P1 and P2), the in vitro permeation data were fitted to the infinite dose model (Eq. 1) using non-linear least squares. This infinite dose model was obtained by solving the diffusion equation using Laplace transform, which was subsequently numerically inverted using Weeks method and fitted to in Python 3.13.3 (Python Software Foundation, Wilmington, DE, US).1 Q¯s=J·A/s=P1ACd/ss/P2sinhs/P2
Here, Q¯s is the cumulative amount of drug permeated, J is the permeation flux, A is the permeation area, Cd is the initial concentration, h is the membrane thickness and s is the Laplace variable. The apparent partition and apparent diffusion coefficients, P1 and P2, are related to the h and the diffusion (D) and partition (K) coefficients, as defined in Eq. 2 and Eq. 3 [32]. The goodness of fit was measured based on the coefficient of determination (R^2) and root mean square error (RMSE).2 P1=Kh 3 P2=D/h^2
The permeability coefficient (Kp), steady-state flux (Jss) and lag time (tlag) can then be calculated using Eqs. 4, 5, and 6 [33] with the estimated values of P1 and P2 from the curve fitting.4 Kp=P1P2 5 Jss=KpCd 6 tlag=h^2/6D
Other permeation parameters were determined experimentally, where A was 0.7–0.8 cm^2, h was 0.0586 cm, Cd was 50 mg/mL and the volume of drug loaded was 40 µL.

[3] = 5%w/v MTG in DMSO, receptor PBS with 0.01%w/v ascorbic acid (DMSO-AA), 48 h
[4] = 5%w/v MTG in DMSO, receptor PBS without ascorbic acid, 48 h
[5] = 5%w/v MTG in Labrasol, receptor PBS with 0.01%w/v ascorbic acid (Labrasol-AA), 48 h
[6] = 5%w/v MTG in Lauroglycol, receptor PBS with 0.01%w/v ascorbic acid (Lauroglycol-AA), 48 h
[7] = 5%w/v MTG in Maisine, receptor PBS with 0.01%w/v ascorbic acid (Maisine-AA), 48 h
[8] = 5%w/v MTG in Maisine, receptor PBS without ascorbic acid, 48 h
[9] = 5%w/v MTG in PG, receptor PBS with 0.01%w/v ascorbic acid (PG-AA), 48 h
[10] = 5%w/v MTG in PG, receptor PBS without ascorbic acid, 48 h
[11] = 5%w/v MTG in Transcutol, receptor PBS with 0.01%w/v ascorbic acid (Transcutol-AA), 48 h
[12] = 5%w/v MTG in Transcutol, receptor PBS without ascorbic acid, 48 h
[13] = 5%w/v in dimethyl sulphoxide and Transcutol, optimised receptor medium (0.01%w/v ascorbic acid in PBS)

## CC[C@@H]1CN2CCc3c([nH]c4cccc(OC)c34)[C@@H]2C[C@@H]1/C(=C\OC)C(=O)OC [MTG, mitragynine]
[1]; 50 µg/mL in PBS with DTT (0.01-0.1%w/v), 96 h, lowest recovery
  Percentage recovery of MTG: ~ 81%
[1]; 50 µg/mL in PBS with ascorbic acid (0.01-0.1%w/v, regardless of concentration), 96 h
  Percentage recovery of MTG: > 99%
[1]; 50 µg/mL in PBS without antioxidant, after 96 h
  Percentage recovery of MTG: ~ 96%
[2]; [3]
  Jss (steady-state flux): 0.77 ± 0.18 µg/cm^2/h and 0.77 ± 0.18^d µg/cm^2/h
  P1 (apparent partition coefficient): 20.35 ± 8.07 × 10^–4 cm
  P2 (apparent diffusion coefficient): 8.01 ± 1.91 × 10^–3 h^−1
  Permeation (cumulative amount of MTG permeated): 15.40 ± 2.40 µg/cm^2
  tlag (lag time): 21.53 ± 4.53 h
  Papp at 48 h, 5 %w/v: 0.00425 ×10⁻⁶ cm/s
[2]; [4]
  Cumulative amount of MTG permeated: 14.40 ± 3.34 μg/cm^2
  Jss (steady-state flux): 0.52 ± 0.15 µg/cm^2/h
  P1 (apparent partition coefficient): 8.90 ± 5.52 × 10^–4 cm
  P2 (apparent diffusion coefficient): 13.40 ± 4.73 × 10^–3 h^−1
  tlag (lag time): 13.52 ± 4.70 h
  Papp at 48 h, 5 %w/v: 0.00291 ×10⁻⁶ cm/s
[2]; [5]
  Jss (steady-state flux): 0.14 ± 0.11 µg/cm^2/h
  P1 (apparent partition coefficient): 6.83 ± 5.64^a × 10^–4 cm
  P2 (apparent diffusion coefficient): 4.33 ± 0.52 × 10^–3 h^−1
  Permeation (cumulative amount of MTG permeated): 1.53 ± 1.08 µg/cm^2
  tlag (lag time): 38.85 ± 4.39^e,f h
  Papp at 48 h, 5 %w/v: 0.000775 ×10⁻⁶ cm/s
[2]; 5%w/v MTG in Labrasol, receptor PBS without ascorbic acid, 48 h
  Permeation (cumulative amount of MTG permeated): 1.36 ± 1.45 µg/cm^2
[2]; [6]
  Jss (steady-state flux): 0.11 ± 0.07 µg/cm^2/h
  P1 (apparent partition coefficient): 0.65 ± 0.09^a × 10^–4 cm
  P2 (apparent diffusion coefficient): 33.50 ± 18.62^b × 10^–3 h^−1
  Permeation (cumulative amount of MTG permeated): 3.65 ± 2.40 µg/cm^2
  tlag (lag time): 6.39 ± 4.02^e h
  Papp at 48 h, 5 %w/v: 0.000631 ×10⁻⁶ cm/s
[2]; 5%w/v MTG in Lauroglycol, receptor PBS without ascorbic acid, 48 h
  Permeation (cumulative amount of MTG permeated): 0.77 ± 0.25 µg/cm^2
[2]; [7]
  Jss (steady-state flux): 0.27 ± 0.07 µg/cm^2/h
  P1 (apparent partition coefficient): 2.18 ± 0.48^a × 10^–4 cm
  P2 (apparent diffusion coefficient): 25.90 ± 8.44 × 10^–3 h^−1
  Permeation (cumulative amount of MTG permeated): 8.39 ± 2.61 µg/cm^2
  tlag (lag time): 7.05 ± 2.82^e h
  Papp at 48 h, 5 %w/v: 0.00151 ×10⁻⁶ cm/s
[2]; [8]
  Jss (steady-state flux): 0.10 ± 0.09 µg/cm^2/h
  P1 (apparent partition coefficient): 1.89 ± 1.95 × 10^–4 cm
  P2 (apparent diffusion coefficient): 12.86 ± 5.15 × 10^–3 h^−1
  Permeation (cumulative amount of MTG permeated): 2.26 ± 1.93 µg/cm^2
  tlag (lag time): 14.19 ± 4.62 h
[2]; [9]
  Jss (steady-state flux): 0.33 ± 0.12 µg/cm^2/h
  P1 (apparent partition coefficient): 9.49 ± 3.95 × 10^–4 cm
  P2 (apparent diffusion coefficient): 7.17 ± 0.89 × 10^–3 h^−1
  Permeation (cumulative amount of MTG permeated): 6.06 ± 2.12 µg/cm^2 and 6.06 ± 2.13 µg/cm^2
  tlag (lag time): 23.50 ± 2.93 h
  Papp at 48 h, 5 %w/v: 0.00183 ×10⁻⁶ cm/s
[2]; [10]
  Cumulative amount of MTG permeated: 5.24 ± 2.28 μg/cm^2
  Jss (steady-state flux): 0.48 ± 0.37 µg/cm^2/h
  P1 (apparent partition coefficient): 25.55 ± 25.22 × 10^–4 cm
  P2 (apparent diffusion coefficient): 7.33 ± 6.13 × 10^–3 h^−1
  tlag (lag time): 33.85 ± 20.70 h
  Papp at 48 h, 5 %w/v: 0.00266 ×10⁻⁶ cm/s
[2]; [11]
  Jss (steady-state flux): 0.46 ± 0.22 µg/cm^2/h
  P1 (apparent partition coefficient): 10.40 ± 4.15 × 10^–4 cm
  P2 (apparent diffusion coefficient): 8.76 ± 0.55 × 10^–3 h^−1
  Permeation (cumulative amount of MTG permeated): 10.27 ± 4.40 µg/cm^2
  tlag (lag time): 19.07 ± 1.17 h
  Papp at 48 h, 5 %w/v: 0.00257 ×10⁻⁶ cm/s
[2]; [12]
  Jss (steady-state flux): 0.44 ± 0.18 µg/cm^2/h
  P1 (apparent partition coefficient): 26.94 ± 23.48 × 10^–4 cm
  P2 (apparent diffusion coefficient): 4.29 ± 1.70 × 10^–3 h^−1
  Permeation (cumulative amount of MTG permeated): 3.89 ± 1.41 µg/cm^2
  tlag (lag time): 44.70 ± 22.17 h
  Papp at 48 h, 5 %w/v: 0.00247 ×10⁻⁶ cm/s
[2]; 5%w/v MTG in the rest of the solvents (other than DMSO), receptor PBS without ascorbic acid, 48 h
  Cumulative amount of MTG permeated: < 4 μg/cm^2
[2]; 5%w/v in Labrasol and Lauroglycol, optimised receptor medium
  Drug permeation: 1 – 4 μg/cm^2
[2]; 5%w/v in Maisine and propylene glycol, optimised receptor medium
  Mitragynine permeated: 6 – 8 µg/cm^2
[2]; [13]
  Mitragynine permeation: 10 – 15 µg/cm^2
  Skin fluxes: 0.5 – 0.8 µg/cm^2/h
[2]; Transcutol-AA and Maisine-AA vs Transcutol and Maisine, 48 h
  MTG amount permeated with vs without ascorbic acid in receptor medium (times higher): 3–4 times
